Laboratory results as given in US20210308101A1, “METHODS OF TREATING FIBROMYALGIA” (Aptinyx Inc., priority 2019, published 2021).

How the values were obtained:
[1] = test system: pain-evoked brain activity; test: fMRI of evoked cuff pain, BOLD activations; assay type: in vivo, human
Source text: As used herein, “Functional Magnetic Resonance Imaging of Evoked Pain and Visual Stimulation” refers to the following procedure. During evoked pain and visual stimulation fMRI paradigms, participants were lying in the scanner as they received either pressure stimulation to their calf muscle or they experienced an unpleasant visual stimulus. For both pain and visual stimulation, whole-brain Blood Oxygenation Level Dependent (BOLD) functional images were acquired.
Each subject underwent a 12-minute block design scan, during which 3 cuff pressure levels (2 equal pressures=15 to 30 and 100 to 115 mmHg; and 1 equal pain=40 to 60/100 numerical rating scale [NRS] units) were applied to the left calf […] using the pressure cuff device in pseudo-random order for a total of 12 pressure stimulations. Pressure levels for each subject were determined during the QST assessment. Each pressure stimulus was applied for 14 seconds. Prior to each pressure stimulus, a 4-second visual cue was presented to signal upcoming cuff pressure to limit any stimulus-onset startle reflex. Subjects' head motion was minimized using foam pads around the head, and a strap secured across the forehead.
As with functional connectivity analyses, pre-processing of images occurs using SPM12. The first 5 images were discarded from the data set and not used for further analysis in order to correct for equilibration effects. Pre-processing steps included: physio-correction, motion correction, coregistration, normalization, and smoothing (FWHM 6 or 8 mm). First level analyses were performed using the general linear model (GLM) implemented in SPM12. Motion parameters from re-alignment were modelled as regressors of no interest. Pain and visual blocks were convolved with a canonical hemodynamic response function and contrasted with rest blocks of no stimulation. These activation maps were then passed up to group-level analyses comparing differences in activations at the analysis visits of interest in SPM. Resulting maps were set at an uncorrected voxel threshold of p<0.001, with p<0.05 FDR or FWE significance corrected for multiple comparisons. The primary analyses were a paired sample t-tests between placebo images and NYX-2925 images (either 20 or 200 mg).
Several analyses were conducted with the fMRI resting state and task data. Results were assessed by: 1) a primary analysis, where a finding was deemed significant with a corrected cluster level p<0.05, derived from an uncorrected voxel-wise p<0.001, and 2) an exploratory analysis, where a finding was deemed significant with an uncorrected voxel-wise p<0.005 and having a cluster greater than or equal to 80 contiguous voxels. Results that met significance in the primary analyses had connectivity values extracted and imported into SPSS v25 where paired t-tests were performed to assess for potential outliers contributing to the finding. Remaining data were then correlated with clinical measures using parametric bivariate Pearson correlations. Results were deemed significant at p<0.05.

[2] = test system: subjects with fibromyalgia; test: PROMISFM fatigue profile; assay type: in vivo, human
Source text: As used herein, the “PROMISFM” fatigue profile is Patient Reported Outcomes Measurement Information System Fibromyalgia, which is a 16-question instrument which has four 4-item short forms that examines the intensity of the impact of fatigue in social, cognitive and motivation subdomains. All 16 questions are based on a 5-point numerical rating scale/Likert scale ranging from 1 to 5, with different categorical responses. Lower scores represent a better quality of life. The PROMISFM fatigue profile is made of the 4 following subdomains: • Experience Subdomain Score 3 Questions with Scores Ranging from 1 (Not at All) to 5 (Very Much): • How tired did you feel on average? • How fatigued were you on average? • How exhausted were you on average? 1 Question with Scores Ranging from 1 (None) to 5 (Very Severe): • What was the level of your fatigue on most days? • Sum of those 4 Questions make up the Experience Subdomain Score Ranging from 4 to 20 • Social Impact Subdomain Score 2 Questions with Scores Ranging from 1 (Not at All) to 5 (Very Much): • To what degree did your fatigue interfere with your social activities? • To what degree did your fatigue interfere with your ability to engage in recreational activities? 2 Questions with Scores Ranging from 1 (Never) to 5 (Always): • How often did you have to limit your social activities because of your fatigue? • How often were you too tired to socialize with your friends? • Sum of those 4 Questions make up the Social Impact Subdomain Score Ranging from 4 to 20 • Motivational Impact Subdomain Score 2 Questions with Scores Ranging from 1 (Not at All) to 5 (Very Much): • To what degree did you have trouble starting things because of your fatigue? • To what degree did you have trouble finishing things because of your fatigue? […] 2 Questions with Scores Ranging from 1 (Never) to 5 (Always): • How often were you too tired to think clearly? • How often did your fatigue make you more forgetful? • Sum of those 4 Questions make up the Cognitive Impact Subdomain Score Ranging from 4 to 20
If at least 2 questions were answered within an individual subdomain, that subdomain score was imputed if missing responses are present. Each subdomain score was multiplied by 4/(number of questions answered) and rounded off to the nearest whole number. Otherwise, that subdomain score was set to missing. The total score was calculated by taking the sum of those 4 subdomains and ranged from 16 to 80. If any of the subdomains were missing, the total score was set to missing. The PROMISFM fatigue profile assessment was collected and analyzed at visits Screening, Day 1, Week 2, Week 4, Week 6, and Follow-up (Week 7). The observed total and subdomain scores, changes from baseline, and changes from treatment periods were summarized using descriptive statistics. Additionally, the treatment group comparisons were analyzed using the paired t-test and nonparametric Wilcoxon signed-rank test. All PROMISFM fatigue profile data collected and the calculated total and subdomain scores at each visit were presented in a subject listing.

CC(C)C(=O)N1CCC[C@]12CN([C@H](C(N)=O)[C@@H](C)O)C2=O [NYX-2925, (2S, 3R)-3-hydroxy-2-((R)-5-isobutyryl-1-oxo-2,5-diazaspiro[3.4]octan-2-yl)butanamide]
pain-evoked brain activity in brain imaging, subject 1 ([1]; 200 mg dose vs placebo, FIGS. 4A, 4B): reduced pain-related brain activity
pain-evoked brain activity in brain imaging, subject 2 ([1]; 200 mg dose vs placebo, FIGS. 4C, 4D): reduction in pain-related brain activity
BOLD activations in right mid cingulate cortex and left primary somatosensory cortex/supplementary motor area ([1]; exploratory, placebo visit to NYX-2925 20 mg visit): decreased
BOLD activations in right putamen/insula, bilateral primary somatosensory/cingulate cortex, left putamen, left posterior insula ([1]; exploratory, placebo visit to NYX-2925 200 mg visit): decreased
BOLD activations, evoked cuff pain task (Pain50 pressure > rest) ([1]; primary analyses): No significant BOLD activations
PROMISFM total fatigue profile score, change from baseline ([2]; NYX-2925 20 mg): reductions from baseline
PROMISFM Cognitive Impact Subdomain Score, changes from Week 2 (placebo) ([2]; NYX-2925 treatment at Weeks 4 and 6): not statistically significant
PROMISFM Fatigue Profile Total Score, mean change ([2]; Week 2 (placebo) to Week 4 (NYX-2925 20 mg), not statistically significant): −3.4
PROMISFM Experience Subdomain Score, mean change ([2]; Week 2 (placebo) to Week 6 (NYX-2925 200 mg), p=0.0036): −2.2
PROMISFM Fatigue Profile Total Score, mean change ([2]; Week 2 (placebo) to Week 6 (NYX-2925 200 mg), p=0.0049): −5.6
PROMISFM Social Impact Subdomain Score, mean change ([2]; Week 2 (placebo) to Week 6 (NYX-2925 200 mg), p=0.0329): −1.4
PROMISFM Motivational Impact Subdomain Score, mean change ([2]; Week 2 (placebo) to Week 6 (NYX-2925 200 mg), p=0.0490): −1.0
PROMISFM Fatigue Profile total score, reduction from baseline ([2]; week six, after four weeks of NYX-2925, scale 16 to 80, n=21): 5.4 point
